According to patent US20090186024A1, “Gene Expression Signatures for Oncogenic Pathway Deregulation” (priority 2005, published 2009):

Tested on: breast cancer cell lines
Test: Cell proliferation assays (growth inhibition, standard MTT/MTS colorimetric assay)
Type: cell-based
Settings: 96 hrs, versus DMSO controls, FIG. 4B
Method: FIGS. 4A-4B show pathway deregulation in breast cancer cell lines predicts drug sensitivity. A. Pathway predictions in breast cancer cell lines. The results plotted show images of the predicted probability of pathway activation (red indicates high probability, blue indicates low probability). B. Sensitivity to pathway-specific drugs. Left panel. Cells were treated with 3.75 μM of farnesyltransferase inhibitor (L-744,832) for 96 hrs. Proliferation was assayed using a standard MTS tetrazolium colorimetric method. The degree of proliferation inhibition was plotted as a function of probability of Ras pathway activation as determined in panel A. Middle panel. Same as in left panel but using farnesylthiosalicylic acid (200 μM). Right panel. Same as in left panel but using the Src pathway inhibitor SU6656 (1.5 μM), and with the degree of proliferation inhibition plotted as a function of Src pathway activation. […]
Cell and RNA preparation. […] Expression of oncogenes and their secondary targets was determined by a standard Western Blotting protocol using a TGH lysis buffer (1% Triton X-100, 10% glycerol, 50 mM NaCl, 50 mM Hepes, pH 7.3, 5 mM EDTA, 1 mM sodium orthovanadate, 1 mM PMSF, 10 μg/ml leupeptine, 10 μg/ml aprotinin). […] Protein quantitation of lysates was determined by BCA [Pierce] prior to electrophoresis with a 10-12% SDS-PAGE gel. Activation status of kinase pathways for the breast cancer cell lines was determined for growing cells (at 75% confluency) 48 hours after plating using the following methods. Ras activation is measured using a Ras Activation Assay Kit (Upstate Biotechnology) that consists of a GST fusion-protein corresponding to the human Ras Binding Domain (RBD, residues 1-149) of Raf-1. […] Western Blotting for immunoprecipitated H/K-Ras is detected using an H/K-Ras specific antibody (Santa Cruz Biotechnology, #sc-520 and sc-F234). c-Src activation was determined by Western Blotting using a phospho-Tyr416 Src antibody (Cell Signaling, #2101). […]

| SMILES | relation between probability of Ras pathway deregulation (gene expression prediction) and extent of cell proliferation inhibition by the drug | relation between probability of Src pathway deregulation (gene expression prediction) and extent of cell proliferation inhibition by the drug |
| --- | --- | --- |
| CC(C)=CCCC(C)=CCCC(C)=CCSc1ccccc1C(=O)O [FTS, farnesylthiosalicylic acid] | close concordance and correlation | – |
| CC[C@H](C)[C@@H](CO[C@@H](Cc1ccccc1)C(=O)N[C@@H](CCS(C)(=O)=O)C(=O)OC(C)C)NC[C@@H](N)CS [L-744,832] | close concordance and correlation | – |
| CN(C)S(=O)(=O)c1ccc2c(c1)/C(=C/c1cc3c([nH]1)CCCC3)C(=O)N2 [SU6656] | – | close concordance and correlation |
